Laboratory results published in PubChem BioAssay AID588827 (Broad Institute, 2011).
Records with an inconclusive call do not appear.

test system: NIH3T3 R4 HSF-1 GFP reporter, heat shock, 48 h; assay: GFP reporter loss versus dox-driven RFP – NIH3T3 R4 cells, cherry-pick, set 4, dose response (AID 588827)

SMILES | AC50 [µM]
COc1ccc(C[C@H]2NC[C@H](O)[C@H]2OC(C)=O)cc1 | 0.361
CCOC(=O)c1c(C)[nH]c2c1-c1ccccc1C(=O)C2=O | 1.23
CC(C)(C)c1ccc2c(c1)OC(C(=O)N/N=C\c1ccc[nH]1)CO2 (stereo not given) | 0.515
CCc1ccc(C2=NNC(=Nc3cccc(S(=O)(=O)N(C)C)c3)SC2)cc1 | 15.7
O=C(CCl)Nc1cn(-c2ccccc2)nc1-c1ccc(F)cc1 | 5.2
C(=N\NC1=Nc2cccc3cccc1c23)/c1ccccn1 | 19.2
Cn1c(=O)c([N+](=O)[O-])c(Cl)c2ccccc21 | 14.2
O=S(=O)(c1ccc2c(c1)C(=NO)c1cc(S(=O)(=O)N3CCCCC3)ccc1-2)N1CCCCC1 | 2.49
CCOC(=O)Cc1nnc2c(Nc3ccccc3F)nc3nonc3n12 | 7.38
Cc1cc([N+](=O)[O-])c2ccccc2[n+]1[O-] | 11
CC12CCC(C/C1=N\N=C1\NC(=O)/C(=C\c3ccc(Cl)cc3)S1)C2(C)C (stereo not given) | 2.11
O=C(CCl)N(c1ccccc1)C1CCCCC1 | 5.18
COc1ccccc1-c1cc(C(F)(F)F)nc(S(=O)(=O)CCCC(=O)NCc2ccc(F)cc2)n1 | 5.26
Cc1ccc(NC2=C/C(=N\S(=O)(=O)c3cccs3)c3ccccc3C2=O)c(C)c1 | 1.42
C=C(C)C(=O)O[C@H]1C/C(C)=C\C(=O)/C=C(\C)[C@H](O)[C@@H]2OC(=O)C(=C)[C@@H]21 | 12.9
